Reference: patent publication US20230365568A1, “PLK1 POLO BOX DOMAIN INHIBITORS AND METHOD OF TREATING CANCER” (The United States of America,as represented by the …, priority 2020, published 2023)
Like-named read-outs stand apart in the source and are kept apart here.

Key:
[1] = rat, microsomes
HeLa cells = conditions: cancer cells in vitro; Alverez et al., 2020; cited from earlier work
PBD of Plk1 [2] = molecular target: T1, PBD of Plk1 (Homo sapiens (Human), UniProt P53350); conditions: Gunasekaran et al., 2020; cited from earlier work
T1 sequence (P53350 326-603): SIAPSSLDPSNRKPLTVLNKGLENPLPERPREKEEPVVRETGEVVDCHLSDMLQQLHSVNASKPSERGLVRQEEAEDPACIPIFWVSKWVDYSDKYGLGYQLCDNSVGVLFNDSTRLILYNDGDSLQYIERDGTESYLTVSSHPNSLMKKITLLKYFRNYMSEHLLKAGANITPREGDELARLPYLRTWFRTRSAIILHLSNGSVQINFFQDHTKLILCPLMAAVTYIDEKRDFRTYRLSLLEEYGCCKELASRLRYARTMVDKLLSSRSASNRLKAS

CYP3A = test: Mouse liver microsome assay with CYP-specific inhibitors; type: in vitro ADME; conditions: mouse liver microsomes
Experimental: In Vitro MLM Assay. Incubations of the mouse liver microsome (MLM) samples were performed in duplicate. Reactions (200 μL final volume) were conducted in 50 mM potassium phosphate buffer, 3 mM MgCl2 (pH 7.4), 1 mg/mL MLM protein, and 2.5 μM test compound with or without 50 μM inhibitor. The mixture was preincubated at 37° C. for 3 min and initiated with 4 mM NADPH. At the serial time of the incubation, 20 μL of the mixture was added to ice-cold 80 μL of 90% acetonitrile including 4 μM of 4 followed by a 25 min incubation on ice and centrifugation at 14,000×g for 10 min. 40 μL of supernatant was diluted with 20 μL of water, and a 5 μL aliquot was injected into the UPLC-QTOF system.
To evaluate metabolic stability information, S-methyl 51 and 5-thio-1-methyl-4-nitroimidazolyl 73 prodrugs were administered orally in male C57BL/6 mice via gavage 50 mg/kg or 20 mg/kg, respectively. […] The AUCs of 14 were 523,200 mg-h/L and 317,600 mg-h/L in 50 mg/kg and 20 mg/kg doses, respectively. Compound 14 was further metabolized by glucuronidation. […] The presence of the 9-F group impeded the hydroxylation, compared to the PK studies in Alverez et al. (J. Med. Chem. 63, 14087-14117 (2020)).

Aqueous solubility = conditions: for Solub.: aqueous solubility
[3] = Microsomal metabolic stability, rat liver microsomes (RLM); conditions: rat liver microsomes
PBD of Plk3 = PBD of Plk3 (Homo sapiens (Human), UniProt Q9H4B4); test: Fluorescence polarization (FP)-based PBD inhibition assay, Plk3; type: binding
PBD of Plk3, sequence (Q9H4B4 335-646): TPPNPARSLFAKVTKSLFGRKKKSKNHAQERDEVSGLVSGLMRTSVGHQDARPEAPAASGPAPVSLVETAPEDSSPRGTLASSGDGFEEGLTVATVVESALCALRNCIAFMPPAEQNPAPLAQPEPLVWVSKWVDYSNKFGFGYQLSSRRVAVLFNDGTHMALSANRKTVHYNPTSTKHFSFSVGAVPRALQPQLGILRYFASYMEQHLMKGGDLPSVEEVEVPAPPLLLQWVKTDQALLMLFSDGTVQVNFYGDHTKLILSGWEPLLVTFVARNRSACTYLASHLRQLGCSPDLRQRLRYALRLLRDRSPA
Experimental: (§1) FP assays were carried out essentially as described previously (Qian, ibid). […] All experiments were performed in triplicate for each sample.
(§2) PBD Fluorescence Polarization (FP) Binding Assays for Plk1 specificity. […] All experiments were performed in triplicate for each sample.

PBD of Plk2 = PBD of Plk2 (Homo sapiens (Human), UniProt Q9NYY3); test: Fluorescence polarization (FP)-based PBD inhibition assay, Plk2; type: binding
PBD of Plk2, sequence (Q9NYY3 355-685): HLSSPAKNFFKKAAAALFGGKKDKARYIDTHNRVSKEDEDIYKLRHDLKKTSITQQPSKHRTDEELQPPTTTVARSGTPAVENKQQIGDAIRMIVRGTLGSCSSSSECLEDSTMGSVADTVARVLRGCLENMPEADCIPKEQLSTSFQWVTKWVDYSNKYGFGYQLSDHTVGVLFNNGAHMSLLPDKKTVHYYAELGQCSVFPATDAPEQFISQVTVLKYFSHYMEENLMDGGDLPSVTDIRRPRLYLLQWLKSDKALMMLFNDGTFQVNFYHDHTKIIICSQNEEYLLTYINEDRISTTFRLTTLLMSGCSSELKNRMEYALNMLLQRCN
Experimental: as §1, §2

in vitro = conditions: PAMPA
[4] = Stability in mouse cytosol; type: in vitro ADME; conditions: read-out: t1/2 Mouse cytosol
full-length human Plk1 = full-length human Plk1 (Homo sapiens (Human), UniProt P53350); test: ELISA-based Plk1 PBD-binding inhibition assay; conditions: Plk1 PBD; n = 3 unless noted
full-length human Plk1, sequence (P53350 whole entry): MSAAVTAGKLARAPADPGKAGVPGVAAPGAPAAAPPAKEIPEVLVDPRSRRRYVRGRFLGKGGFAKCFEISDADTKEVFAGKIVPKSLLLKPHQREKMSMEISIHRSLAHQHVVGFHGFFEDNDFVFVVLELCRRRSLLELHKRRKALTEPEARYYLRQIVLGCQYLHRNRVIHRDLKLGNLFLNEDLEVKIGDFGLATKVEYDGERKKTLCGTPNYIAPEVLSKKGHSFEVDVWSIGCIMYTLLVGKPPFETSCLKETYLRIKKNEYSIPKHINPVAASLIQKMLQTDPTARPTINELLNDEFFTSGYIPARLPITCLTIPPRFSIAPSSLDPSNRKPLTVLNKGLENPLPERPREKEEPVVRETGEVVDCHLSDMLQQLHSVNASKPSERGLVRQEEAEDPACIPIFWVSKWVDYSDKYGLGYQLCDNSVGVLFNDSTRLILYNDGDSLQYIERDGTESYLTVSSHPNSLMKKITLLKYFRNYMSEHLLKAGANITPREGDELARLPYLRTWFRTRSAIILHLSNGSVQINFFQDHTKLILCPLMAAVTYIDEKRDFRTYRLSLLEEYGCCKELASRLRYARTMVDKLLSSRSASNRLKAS
Experimental: An ELISA-based PBD-binding inhibition assay was performed essentially as described previously. […] The wells were washed once with PBS+0.05% Tween20 (PBST) and incubated with 200 μl of PBS plus 1% BSA (blocking buffer) for 1 h to prevent non-specific binding. HEK293A lysates expressing HA-EGFP-Plk1 were prepared in a TBSN [20 mM Tris-HCl (pH 8.0), 150 mM NaCl, 0.5% NP-40, 5 mM EGTA, 2 mM MgCl2, 1.5 mM EDTA, and protease inhibitor cocktail (Roche)]+20% DMSO buffer (˜20 μg total lysates in 100 μl buffer), mixed with the indicated amount of the competitors (p-T78 peptide and its derivative compounds) for 30 min, provided onto the biotinylated peptide-coated ELISA wells, and then incubated with constant rocking for 1 h at 25° C. Following the incubation, ELISA plates were washed 5 times with PBST. To detect bound HA-EGFP-Plk1, the plates were probed for 2 h with 100 μl/well of anti-HA antibody at a concentration of 0.5 μg/ml in the blocking buffer and then washed 5 times. The plates were further probed for 1 h with 100 μl/well of HRP-conjugated secondary antibody (GE Healthcare) at a 1:1,000 dilution in the blocking buffer. The plates were washed 5 times with PBST and incubated with 100 μl/well of 3,3′,5,5′-tetramethylbenzidine solution (Sigma-Aldrich, St. Louis, MO) as substrate until a desired absorbance was reached. The reactions were stopped by the addition of 100 μl/well of stop solution (Cell Signaling Technology, Danvers, MA). The optical density (O.D.) was measured at 450 nm by using a Perkin-Elmer Enspire Multimode Plate reader (PerkinElmer, Inc., Boston, MA). Data obtained from more than three independent experiments were analyzed by GraphPad (San Diego, CA) Prism software version 7.
ELISA-based PBD-binding Inhibition Assay. […] The reaction products were measured at 450 nm by using a Perkin-Elmer Enspire Multimode Plate reader (PerkinElmer, Inc., Boston, MA). Data obtained from more than three independent experiments were analyzed by GraphPad (San Diego, CA) Prism software version 7.

[5] = In vivo mouse pharmacokinetics, intraperitoneal; conditions: mice
Experimental: The National Cancer Institute Animal Care and Use Committee approved all animal experiments conducted in this study.
In the in vivo mouse pharmacokinetics study, 6-8-week-old male C57BL/6 mice were selected for metabolite profiling. In brief, 200 μL/20 g mice of WA (20 mg/kg dissolved in 5% DMSO and 5% Tween 80-contained saline) was administered intraperitoneally to mice. Control mice were treated with saline containing 5% DMSO and 5% Tween 80 alone. […] Blood samples were collected by retro-orbital bleeding at 4 h postdose. After centrifugation for 10 min at 14 000×g, serum was obtained and prepared by mixing 20 μL serum with 180 μL 50% aqueous acetonitrile. After centrifugation at 14 000×g for 20 min, a 5 μL aliquot of the supernatants was injected into a Waters UPLC-ESI-QTOFMS system (Waters Corporation, Milford, MA).

[6] = Stability in mouse liver microsomes; type: in vitro ADME; conditions: read-out: t1/2 Mouse LM
Stability in rat cytosol = type: in vitro ADME; conditions: read-out: t1/2 Rat cytosol
[7] = tested on: Plk1 localization to centrosomes and kinetochores in HeLa cells; test: Immunostaining of Plk1 localization and spindle morphology in HeLa cells; type: cell-based; conditions: 100 μM; for inhibition at 100 µM: Homo sapiens
Experimental: HeLa cells were cultured as recommended by the American Type Culture Collection (ATCC). Asynchronously growing cells were treated with control DMSO or the indicated concentration of 143. To reveal chromosome morphologies, cells were treated with 4′,6-diamidino-2-phenylindole (DAPI), fixed, and subjected to confocal microscopy. Immunostaining was carried out using anti-Plk1 (Santa Cruz Biotechnology, Santa Cruz, CA), anti-Cep63 (MilliporeSigma), anti-CREST (Antibodies Incorp, Davis, CA), and anti-α-tubulin (Sigma, St. Louis, MO) antibodies. Confocal images were acquired using a Zeiss LSM780 equipped with a plan-apochromat 63× (N.A. 1.4) oil-immersion objective lens, 34-channel GaAsP spectral detector (Carl Zeiss Microscopy, LLC.), and 8-bit, 0.5-μm z-steps.
To quantify fluorescence signal intensities, images were acquired under the same settings and the images obtained after the maximum-intensity projection of z-stacks were analyzed using the Zeiss ZEN v2.1 software (Carl Zeiss Microscopy, LLC). All the quantifications were performed with randomly chosen fields from at least three independent experiments. All values are given as mean±s. D. P values were calculated by unpaired t test from the mean data of each group in Graph Pad Prism (***P<0.001). The statistical details including the definitions and value of n (e.g., number of experimental replicates, cells, etc.) And standard deviations are provided herein.
To directly examine whether the observed mitotic arrest was the consequence of inhibiting Plk1 PBD function, immunostaining analysis was carried out to determine the ability of intracellular Plk1 to localize to centrosomes and kinetochores, an event that requires PBD-mediated protein-protein interaction (Lee et al., Trends Pharmacol. Sci. 36, 858-877 (2015); and Elia et al., Cell 115, 83-95 (2003)). […] A short treatment time (i.e., 2 h), which was intended to minimize a potential indirect effect of these inhibitors, was sufficient to delocalize greater than 70% of Plk1 signals from centrosomes (marked by anti-Cep63 signals) and 90% of those from kinetochores (marked by anti-CREST signals).

[8] = Stability in rat liver microsomes (Table 10); type: in vitro ADME; conditions: read-out: t1/2 Rat LM
[9] = Stability in human cytosol; type: in vitro ADME; conditions: read-out: t1/2 Human cytosol
[10] = Stability in human liver microsomes; type: in vitro ADME; conditions: read-out: t1/2 Human LM
[11] = In vitro stability in mice (mouse liver microsome assay); type: in vitro ADME; conditions: liver microsomes, pH 7.4, read-out: t1/2 in vitro
Experimental: The reaction was stopped by an aliquot of 200 μL of ice-cold acetonitrile after 60 min. After centrifugation at 14 000×g for 10 min, a 5 μL aliquot of the supernatant was injected into a UHPLC-[…]. […] A trace amount of the subsequent glucuronide of the demethylated metabolite was also seen in the serum, as it could be promptly excreted from the liver to the bile, once generated, and can then undergo enterohepatic circulation through which the demethylated product is reabsorbed to the circulation. This could also serve as an explanation for the increased demethylated metabolite at the last time point.

PBD of Plk1 [12] = molecular target: T1, PBD of Plk1; test: Fluorescence polarization (FP)-based PBD inhibition assay, Plk1; type: binding
Experimental: as §1, §2

## 7-fluoro-4-(2-(piperidin-1-yl)ethyl)-1-thioxo-2,4-dihydro-[1,2,4]triazolo[4,3-a]quinazolin-5(1H)-one [Example 49]
[1]
  t1/2 (min, RLM): >30 min

## CSc1nnc2n(CCc3ccccc3)c(=O)c3ccccc3n12 [Example 6, 1-(methylthio)-4-phenethyl-[1,2,4]triazolo[4,3-a]quinazolin-5(4H)-one]
HeLa cells
  concentration required to induce mitotic arrest and affect proliferation: > 100 µM

## CNc1ccc(C(=O)NCCn2cc(C=C3C(=O)NC(=O)NC3=O)c(-c3ccccc3)n2)cc1 [KBJK557]
PBD of Plk1 [2]
  cross-reactivity among Plk1-3 PBDs: considerable cross-reactivities among Plk1-3 PBDs

## CC(=O)NCCCn1c(=O)c2cc(F)ccc2n2c(=S)[nH]nc12 [compound 73]
CYP3A
  sensitivity of conversion to 14 to ketoconazole (CYP3A inhibitor): refractory to ketoconazole treatment
Aqueous solubility
  Solub.: >50 µg/mL
other
  PAMPA: 18.0 ×10⁻⁶ cm/s
[3]
  t1/2 (min, RLM): >30 min

## O=c1c2cc(F)ccc2n2c(=S)[nH]nc2n1CC1CC1 [compound 79]
Aqueous solubility
  solubility: moderate to good solubility
  Solub.: 16.2 µg/mL
PBD of Plk3
  inhibition of Plk3 PBD, FP assay: failed to exhibit any detectable level of inhibition
PBD of Plk2
  inhibition of Plk2 PBD, FP assay: failed to exhibit any detectable level of inhibition
other
  PAMPA: 46.0 ×10⁻⁶ cm/s
[3]
  t1/2 (min, RLM): >30 min

## Cc1noc(C)c1C=CC(=O)NCCCn1c(=O)c2cc(F)ccc2n2c(=S)[nH]nc12 [compound 121, 3-(3,5-dimethylisoxazol-4-yl)-N-(3-(7-fluoro-5-oxo-1-thioxo-1,2-dihydro-[1,2,4]triazolo[4,3-a]quinazolin-4(5H)-yl)propyl)propenamide]
In vitro
  Papp: 27.6 ×10⁻⁶ cm/s

## CCCn1c(=O)c2ccccc2n2c(SC)nnc12 [compound 143, 1-(methylthio)-4-propyl-[1,2,4]triazolo[4,3-a]quinazolin-5(4H)-one]
[4]
  half-life: > 120 min
full-length human Plk1
  IC50: > 50 µM
[5]; male, C57BL/6, mouse, serum, ip, 20 mg/kg, in vivo, intraperitoneal, read-out: t1/2 in vivo
  half-life: 28.7 ± 8.3 min
[5]; ≥15 min post-injection
  metabolites in serum: both the hydroxylated and demethylated products were detected in the serum
[6]
  half-life: 3.77 min
Stability in rat cytosol
  half-life: > 120 min
[7]
  spindle bipolarity: significantly compromised
[7]; read-out: inhibition of Plk1 localization to centrosomes
  inhibition at 100 µM: ~20%
[7]; read-out: inhibition of Plk1 localization to kinetochores
  inhibition at 100 µM: ~50%
[8]
  half-life: 9.41 min
[9]
  half-life: > 120 min
[10]
  half-life: 16.8 min
[11]
  half-life at 20 µM: 11.4 ± 3.49 min

## CCCn1c(=O)c2cccc(F)c2n2c(SC)nnc12 [compound 145, 9-fluoro-1-(methylthio)-4-propyl-[1,2,4]triazolo[4,3-a]quinazolin-5(4H)-one]
[11]
  half-life at 20 µM: 21.8 ± 6.03 min

## PLHST [6b]
PBD of Plk1 [12]
  activity in FP-based assay: no detectable activity
